Measured values from patent USRE36494E, “2-aralkoxy and 2-alkoxy adenosine derivatives as coronary vasodilators and antihypertensive agents” (Discovery Therapeutics, Inc., priority 1993, dated 2000).
pEC50: −log10 of the molar value.

Key:
[1] = target: T1, A1 receptors of the SA node (Cavia porcellus, UniProt P47745); assay: SQ (stimulus to Q) interval prolongation (A1 effect), isolated perfused Langendorff heart; parameters: species or system guinea pig (female Sprague-Dawley guinea pigs); conditions: concentration for half-maximal prolongation of stimulus to Q interval; infusion into aortic cannula, stepwise every 5 minutes; read-out: SQ Prolongation (A1) ED50
T1 construct: perfused hearts from female Sprague-Dawley guinea pigs in an isolated Langendorff heart preparation; from tissue; host or cells: isolated perfused guinea pig heart (Langendorff), nodal/conducting tissue
T1 sequence (P47745 1-326): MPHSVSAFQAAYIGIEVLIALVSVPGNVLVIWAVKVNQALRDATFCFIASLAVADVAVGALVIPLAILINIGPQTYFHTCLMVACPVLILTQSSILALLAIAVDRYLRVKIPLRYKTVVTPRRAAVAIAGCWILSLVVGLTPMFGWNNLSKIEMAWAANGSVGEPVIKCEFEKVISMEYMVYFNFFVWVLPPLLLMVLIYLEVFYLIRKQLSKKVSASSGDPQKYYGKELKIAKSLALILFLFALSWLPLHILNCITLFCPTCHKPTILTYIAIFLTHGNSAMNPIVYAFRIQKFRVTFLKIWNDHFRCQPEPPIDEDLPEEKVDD
Procedure: (§1) Assays of the cardiovascular potency of the above compounds at the A1 receptors of the SA node and at the A2 receptor of the coronary artery employed perfused hearts from female Sprague-Dawley guinea pigs in an isolated Langendorff heart preparation. An assay consists of an infusion of a spectophotometrically standardized solution of test compound directly into the aortic cannula at rates increasing stepwise every 5 minutes. Collection of the total cardiac effluent during the first half of each infusion period provides a measure of coronary flow (A2 effect). The concentration of test compound required to produce a half-maximal increase in coronary flow is determined. Registration of the ECG assesses the effect of the test compound on SA node (stimulus to Q interval, A1 effect). The concentration of test compound required to produce a half-maximal prolongation of stimulus to Q interval is determined. […] The ratio of A1 and A2 effects of test compounds are calculated to provide the selectivity ratio.

[2] = target: T2, A2 receptor of the coronary artery (Cavia porcellus, UniProt P46616); assay: Coronary blood flow increase (A2 effect), isolated perfused Langendorff heart; parameters: species or system guinea pig (female Sprague-Dawley guinea pigs); conditions: for Selectivity (A1/A2): ratio of SQ prolongation ED50 (A1) to coronary flow EC50 (A2); for affinity and selectivity for A2 adenosine receptors (in words): qualitative statement
T2 construct: perfused hearts from female Sprague-Dawley guinea pigs in an isolated Langendorff heart preparation; from tissue; host or cells: isolated perfused guinea pig heart (Langendorff), coronary vasculature
T2 sequence (P46616 whole entry, the tested form may be a part): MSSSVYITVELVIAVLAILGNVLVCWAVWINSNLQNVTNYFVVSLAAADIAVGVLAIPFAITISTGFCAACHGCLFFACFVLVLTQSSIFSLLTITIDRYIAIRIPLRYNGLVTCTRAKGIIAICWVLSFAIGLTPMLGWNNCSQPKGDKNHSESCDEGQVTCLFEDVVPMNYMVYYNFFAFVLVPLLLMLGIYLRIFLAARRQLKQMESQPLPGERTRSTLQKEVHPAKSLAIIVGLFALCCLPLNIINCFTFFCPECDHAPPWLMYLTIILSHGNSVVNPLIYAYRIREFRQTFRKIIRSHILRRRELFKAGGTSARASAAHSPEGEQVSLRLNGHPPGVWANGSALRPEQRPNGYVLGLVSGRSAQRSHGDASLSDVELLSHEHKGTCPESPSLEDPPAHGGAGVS
Procedure: as §1

Compound	pEC50 [1]	Selectivity (A1/A2) [2]	affinity and selectivity for A2 adenosine receptors (in words) [2]	pEC50 ([2]; concentration for half-maximal increase in coronary flow, infusion into aortic cannula, stepwise every 5 minutes)
Nc1nc(OCCc2ccc3ccccc3c2)nc2c1ncn2[C@@H]1O[C@H](CO)[C@@H](O)[C@H]1O [Example 24, 2-[2-(2-naphthyl)ethoxy]adenosine]	4.94	–	–	–
Nc1nc(OC2CCCCC2)nc2c1ncn2[C@@H]1O[C@H](CO)[C@@H](O)[C@H]1O [Example 4, 2-Cyclohexyloxyadenosine]	–	152	–	–
Nc1nc(OCc2ccccc2)nc2c1ncn2[C@@H]1O[C@H](CO)[C@@H](O)[C@H]1O [Example 6, 2-benzyloxyadenosine]	5.20	15	–	–
CCNC(=O)[C@H]1O[C@@H](n2cnc3c(N)nc(OCCc4ccccc4)nc32)[C@H](O)[C@@H]1O [Example 22, 2-(2-phenyl)ethoxy-5'-N-ethylcarboxamidoadenosine]	–	11509	high affinity and selectivity	–
COc1cc(CCOc2nc(N)c3ncn([C@@H]4O[C@H](CO)[C@@H](O)[C@H]4O)c3n2)cc(OC)c1OC [Example 12, 2-[2-(3,4,5-trimethoxyphenyl)ethoxy]adenosine]	4.33	2151	–	–
Nc1nc(OCCc2ccc(F)cc2)nc2c1ncn2[C@@H]1O[C@H](CO)[C@@H](O)[C@H]1O [Example 2, 2-[2-(4-fluorophenyl)ethoxy]adenosine]	4.59	29432	high affinity and selectivity	–
Nc1nc(OCCCc2ccccc2)nc2c1ncn2[C@@H]1O[C@H](CO)[C@@H](O)[C@H]1O [Example 1, 2-(3-phenyl-1-propoxy)adenosine]	4.70	326	–	–
Nc1nc(OCCc2ccccc2)nc2c1ncn2[C@@H]1O[C@H](CO)[C@@H](O)[C@H]1O [Example 7, 2-(2-phenylethoxy)adenosine]	4.70	7126	–	–
Nc1nc(OCCc2cccs2)nc2c1ncn2[C@@H]1O[C@H](CO)[C@@H](O)[C@H]1O [Example 13, 2-[2-(2-thienyl)ethoxy]adenosine]	4.93	3212	–	–
COc1cccc(CCOc2nc(N)c3ncn([C@@H]4O[C@H](CO)[C@@H](O)[C@H]4O)c3n2)c1 [Example 9, 2-[2-(3-methoxyphenyl)ethoxy]adenosine]	4.79	6238	–	–
CC[C@@H](COc1nc(N)c2ncn([C@@H]3O[C@H](CO)[C@@H](O)[C@H]3O)c2n1)c1ccccc1 [Example 18]	4.73	50	–	6.43
Cc1ccccc1CCOc1nc(N)c2ncn([C@@H]3O[C@H](CO)[C@@H](O)[C@H]3O)c2n1 [Example 11, 2-[2-(2-methylphenyl)ethoxy]adenosine]	4.60	6610	–	–
Nc1nc(OCCc2c[nH]c3ccccc23)nc2c1ncn2[C@@H]1O[C@H](CO)[C@@H](O)[C@H]1O [Example 16, 2-[2-(3-indolyl)ethoxy]adenosine]	4.85	–	–	–
COc1ccccc1CCOc1nc(N)c2ncn([C@@H]3O[C@H](CO)[C@@H](O)[C@H]3O)c2n1 [Example 8, 2-[2-(2-methoxyphenyl)ethoxy]adenosine]	4.45	1109	–	–
Nc1nc(OCCc2cccc3ccccc23)nc2c1ncn2[C@@H]1O[C@H](CO)[C@@H](O)[C@H]1O [Example 15, 2-[2-(1-naphthyl)ethoxy]adenosine]	5.07	–	–	–
Nc1nc(OCCCCCc2ccccc2)nc2c1ncn2[C@@H]1O[C@H](CO)[C@@H](O)[C@H]1O [Example 21, 2-(5-phenyl-1-pentoxy)adenosine]	5.34	–	–	–
Nc1nc(OC2CCCC2)nc2c1ncn2[C@@H]1O[C@H](CO)[C@@H](O)[C@H]1O [Example 3, 2-Cyclopentyloxyadenosine]	–	866	–	–
COc1ccc(CCOc2nc(N)c3ncn([C@@H]4O[C@H](CO)[C@@H](O)[C@H]4O)c3n2)cc1 [Example 10, 2-[2-(4-methoxyphenyl)ethoxy]adenosine]	4.71	14089	high affinity and selectivity	–
CC[C@H](COc1nc(N)c2ncn([C@@H]3O[C@H](CO)[C@@H](O)[C@H]3O)c2n1)c1ccccc1 [Example 19, 2-[(2S)-phenyl-1-butoxy]adenosine]	–	872	–	–
CC(COc1nc(N)c2ncn([C@@H]3O[C@H](CO)[C@@H](O)[C@H]3O)c2n1)c1ccccc1 (stereo partly drawn) [Example 17, 2-(2-phenyl-1-propoxy)adenosine]	–	5899	–	–
Nc1nc(OCCCCc2ccccc2)nc2c1ncn2[C@@H]1O[C@H](CO)[C@@H](O)[C@H]1O [Example 20, 2-(4-phenyl-1-butoxy)adenosine]	–	743	–	–
